In patent publication US10485772B2, “Compositions for modulating cancer stem cells and uses therefor” (University of Canberra, priority 2014, dated 2019):

Experiments:
MCF-7 cells = assay: EMT assay by phase contrast microscopy in MCF-IM model; format: cell-based, human; settings: MCF-IM model; for EMT (morphology): bisindolylmaleimide 1 μM, 1 hr pre-treatment before PMA for 60 hrs
Procedure: EMT assays were performed in 24-well plates (Costar, Corning Inc., Corning, N.Y., USA). For this assay, usually MCF-7 cells were seeded at 4×10^4/well/500 μL media one day before the experiment unless otherwise specified. Cells were stimulated with various EMT stimuli prepared in warm media the following day and monitored for EMT changes under the microscope specified below. The percentage of EMT was generally calculated based on phenotype counting 100 cells per field under the microscope. All the potential EMT stimuli used herein are described in Table 6 and they were prepared and stored as per supplier specification.
Phase contrast microscopy was utilized for EMT and wound healing assays under 10× or 20× magnification of Olympus Fluorescence 1X71 microscope. Images were captured and analyzed as described above except that wound healing assay pictures were also analyzed by Image J software (Free software in Public domain developed by NIH).
The adherent human mammary adenocarcinoma MCF-7 and MDA-MB-231 cells were cultured in low glucose DMEM (Gibco) and both supplemented with 10% FCS, 2 mM L-glutamine and 0.1% PSN antibiotics. […] For Bisindolylmaleimide-I (Calbiochem) or PKC-θ peptide inhibitor (Calbiochem) studies, cells were pre-treated with 1 μM or 30 μM of inhibitor respectively for 1 h prior to stimulation in MCF-7 cells. In case of MDA-MB-231, cells were treated with 4 μM or 30 μM Bisindolylmaleimide-I or PKC-θ peptide inhibitor respectively.
phase contrast microscopy was performed where cells were viewed at ×4 magnification (wound healing assay) or ×10 magnification (EMT) using an Olympus fluorescence IX71 microscope (Olympus) and images were captured using DPController software (2002 Olympus Optical Co. LTD) and analyzed using Photoshop CS3 (Adobe Systems Inc.). Scans were taken with a 10 μm scale bar.

[1] = test system: laminin-5, uPAR and CD44 transcripts in MCF-7 cells; assay: TaqMan real time PCR transcript analysis of EMT/CSC genes in MCF-IM model; format: cell-based, human
Procedure: For most of the experiments, total RNA was extracted from 5×10^5 to 1×10^6 MCF-7 cells unless otherwise specified. Cells were first thawed in 1 mL of Trizol® Reagent (Invitrogen, Carlsbad, Calif.) for 5 minutes at room temperature to inactivate RNases, followed by trituration to dislodge the cell pellet. The dissociated cells suspended in Tizol (1 mL) were transferred into a 1.5 mL Eppendorf tube for 5 minutes for homogenization. RNA was then extracted by addition of 200 μL chloroform and mixing was done vigorously before centrifuging the samples at 8,000×g for 30 minutes at 4° C. The aqueous layer was then collected into a fresh 1.5 mL Eppendorf tube and an equal volume of isopropanolol was added to the aqueous layer and mixed gently. After 5 minutes at room temperature, samples were either snap frozen on dry ice and stored at −70° C. overnight or until the isolation procedure could be re-commenced. After thawing the samples quickly, the samples were again centrifuged at 8,000×g for 30 minutes at 4° C. to precipitate the RNA. To remove all traces of isopropanolol, next the RNA pellets were washed with 1 mL of ice cold 80% ethanol (Analytical UNIVAR, Seattle, Wash.) before centrifuging at 3,600×g for 10 minutes at 4° C. All ethanol then was removed and pellets were allowed to air dry for 5 minutes. RNA samples were then solubilized by re-suspending them in 50 μL of nuclease-free DEPC (Diethylpyrocarbonate treated) water (Ambion, VIC, Australia). Next, 2 μL of the sample was taken out to measure RNA quality and quantity on Nano-drop® Spectrophotometer ND 1000 (Nanodrop Technologies, Inc., Wilmington, Del., USA) using ND-1000 V3.30 software. All the RNA samples were found pure as they had A260/A280 ratio of 1.9-2.1 and this ratio provides an estimate of RNA purity with respect to contaminants such as proteins that absorb in the UV spectrum.
Superscript™® III kit (Invitrogen, Carlsbad, Calif.) was used for cDNA synthesis. Master mix-1 was prepared by adding 1 μL of 5 μM oligo (dT) and 1 μL of 100 mM dNTPs and mixed by flicking. Mastermix-2 was prepared by adding 2 μL of RT buffer, 2 μL of 3 mM mgCl2, 2 μL of DTT mix, 1 μL of RNAse out, 1 μL of superscript III and mixed by flicking. For 1 μg RNA, 2 μL of the master mix-1 was added to the samples, mixed and incubated at 65° C. for 5 minutes and then samples were placed on ice to stop the reaction. This step was followed by addition of 10 μL of the master mix-2 per sample and incubation of samples at 50° C. for 50 minutes. The reaction was then stopped by incubating samples at 85° C. for 5 minutes followed by placing the samples on the ice for 2 minutes. […] All the samples were either snap frozen on dry ice or used immediately for quantitative Real-Time PCR analysis. […]

SMILES | PMA-induced EMT-like morphological changes (MCF-7 cells; pre-incubation with Go6976) | transcription of key inducible EMT/CSC genes (laminin-5, uPAR, CD44) ([1]; Go6976 1 μM for 1 hour prior to PMA) | EMT (morphology) (MCF-7 cells) | EMT (morphology) (MCF-7 cells; listed as Broad spectrum PKC pathway inhibitor) | transcription of key inducible EMT/CSC genes (laminin-5, uPAR, CD44) ([1]; bisindolylmaleimide-I 100 nM for 1 hour prior to PMA) | transcription of key inducible EMT/CSC genes (laminin-5, uPAR, CD44) ([1]; bisindolylmaleimide-I 1 μM for 1 hour prior to PMA) | transcription of key inducible EMT/CSC genes (laminin-5, uPAR, CD44) ([1]; bisindolylmaleimide-I 1 μM for 1 hour prior to PMA, listed as Broad spectrum PKC pathway inhibitor)
Cn1c2ccccc2c2c3c(c4c5ccccc5n(CCC#N)c4c21)CNC3=O [Go6976] | did not prevent PMA-induced EMT-like morphological changes or CSC formation | failed to inhibit transcription of key inducible EMT/CSC genes | – | – | – | – | –
CN(C)CCCn1cc(C2=C(c3c[nH]c4ccccc34)C(=O)NC2=O)c2ccccc21 [bisindolylmaleimide-I] | – | – | inhibits EMT | inhibition of EMT and CSC formation | cannot inhibit transcription of key inducible EMT/CSC genes | inhibits transcription of key inducible EMT/CSC genes | inhibition of EMT and CSC formation
